Source: US4925865A, “Antimycotic agents” (Bayer Aktiengesellschaft, priority 1987, dated 1990)
≈ marks a conversion by molar mass, not a printed value.

Key:
[1] = test system: Aspergillus fumigatus; test: Antimycotic in vitro activity, serial dilution test, Aspergillus fumigatus; assay type: cell-based; settings: 28-37° C.
Method: (§1) The in vitro tests were carried out in the serial dilution test using inocula of microorganisms of approximately 5×10^3 to 10^4 microorganisms/ml of substrate. The nutrient medium used was (a) for dermatophytes and Blastomycetes: Sabouraud's test medium (b) for yeasts: meat extract/dextrose broth. The incubation temperature was 28° C. to 37° C., and the incubation period was 24 to 96 hours with yeasts and 96 hours with dermatophytes and Blastomycetes.

[2] = test system: mycoses; settings: compare EP-OS No.0,180,850; cited from earlier work
[3] = test system: Torulopsis glabrata; test: Antimycotic in vitro activity, serial dilution test, Torulopsis glabrata; assay type: cell-based; settings: Nakaseomyces glabratus; 28-37° C., 24 to 96 hours
Method: as §1

[4] = test system: Candida albicans; test: Antimycotic in vitro activity, serial dilution test, Candida albicans; assay type: cell-based; settings: meat extract/dextrose broth, 28-37° C., 24 to 96 hours
Method: as §1

[5] = test system: Trichophyton mentagr.; test: Antimycotic in vitro activity, serial dilution test, Trichophyton mentagr.; assay type: cell-based, Trichophyton mentagrophytes; settings: Sabouraud's test medium, 28-37° C., 96 hours
Method: as §1

OC(Cn1cncn1)(c1ccc(Cl)cc1)C1(Oc2ccc(Cl)cc2Cl)CC1 (centres unmarked) [(B), 1-(4-chlorophenyl)-1-[1-(2,4-dichlorophenoxy)-cycloprop-1-yl]-2-(1,2,4-triazol-1-yl)-ethan-1-ol, reference compound]
MIC [1]: > 64 µg/mL | antimycotic properties [2]: exhibit antimycotic properties | MIC [3]: 64 µg/mL (≈ 151 µM) | MIC [4]: 16 µg/mL (≈ 37.7 µM) | MIC [5]: 64 µg/mL (≈ 151 µM)
